Reference: US9995734B2, “Human T cell line assay for evaluating the immunologic identity of glatiramer acetate preparations” (Mylan Inc., priority 2013, dated 2018)
Where “and” joins values, the source holds several entries; their conditions need not be identical. Equal values may be shown once.

Legend:
[1] = test system: Donor 3 GMA T-Cell Lines; experiment: ATP proliferation assay (CellTiter Glo), Donor 3 GMA T-cell lines, incl. reactivity to non-canonical GA peptides; format: cell-based, human; conditions: for proliferation response to non-canonical GA peptides: 0, 1, 3, 10, 30 μg/mL; for Non-Canonical Peptide Non-Reactivity: proliferation <2 times no antigen control; for Non-Canonical Peptide Reactivity: at least one proliferation value >=2 times no antigen control
[2] = test system: Donor 1 COP T-Cell Lines; experiment: ATP proliferation assay (CellTiter Glo), Donor 1 COP T-cell lines, incl. reactivity to non-canonical GA peptides; format: cell-based, human; conditions: for luminescent ATP proliferation assay, mean: Day 56, no antigen 5673 (Table 9)
Outline: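 Donor 1 COP-derived T-cell lines restimulated with GA, COP, GMA or non-canonical GA peptides (1–30 µg/mL) alongside mitomycin C-treated autologous PBMC or B-LCL APC. Proliferation read as ATP content by CellTiter Glo luminescence, 48 h after stimulation in later screens (3 days in initial split-well screens). Controls: no antigen (GMA series), MBP (COP series).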

poly (Glu-Ala-Tyr; 6:3:1) [GAT 631]
proliferation response to non-canonical GA peptides ([1]; 165-B5G and 165-E7G, Day 81): responded
Non-Canonical Peptide Non-Reactivity ([1]; 165-B5G): GAT 631
Non-Canonical Peptide Non-Reactivity ([1]; 165-C5G): GAT 631
Non-Canonical Peptide Reactivity ([1]; 165-E7G): GAT 631
Non-Canonical Peptide Non-Reactivity ([1]; 165-E9G): GAT 631
Non-Canonical Peptide Non-Reactivity ([1]; 165-F5G): GAT 631
Non-Canonical Peptide Non-Reactivity ([1]; 165-F10G): GAT 631
proliferation response to non-canonical GA peptides ([1]; 165-H11G, Day 50): responded
Non-Canonical Peptide Reactivity ([1]; 165-H11G): GAT 631
Reactive T-Cell Line ([1]; Donor 3 GMA lines, at least a 50% increase in proliferation relative to a control after stimulation with the non-canonical GA peptide): 165-H11G (Donor 3)
Nonreactive T-Cell Line ([1]; Donor 3 GMA lines, stimulation with the non-canonical GA peptide): 165-B5G (Donor 3) and 165-C5G (Donor 3) and 165-C8G (Donor 3) and 165-E7G (Donor 3) and 165-E9G (Donor 3) and 165-F5G (Donor 3) and 165-F10G (Donor 3)
Proliferation (luminescent ATP assay), Mean ([1]; T-cell line 165-05G, 1 μg/mL antigen, Day 50 of culturing, No Antigen Value 2149): 2004 RLU
Proliferation (luminescent ATP assay), Mean ([1]; T-cell line 165-05G, 3 μg/mL antigen, Day 50 of culturing, No Antigen Value 2149): 2207 RLU
Proliferation (luminescent ATP assay), Mean ([1]; T-cell line 165-05G, 10 μg/mL antigen, Day 50 of culturing, No Antigen Value 2149): 1928 RLU
Proliferation (luminescent ATP assay), Mean ([1]; T-cell line 165-05G, 30 μg/mL antigen, Day 50 of culturing, No Antigen Value 2149): 1829 RLU
Proliferation (luminescent ATP assay), Mean ([1]; T-cell line 165-B5G, 1 μg/mL antigen, Day 81 of culturing, No Antigen Value 2432): 4666 RLU
Proliferation (luminescent ATP assay), Mean ([1]; T-cell line 165-B5G, 1.25 μg/mL antigen, Day 55 of culturing, No Antigen Value 846): 1133 RLU
Proliferation (luminescent ATP assay), Mean ([1]; T-cell line 165-B5G, 2.5 μg/mL antigen, Day 55 of culturing, No Antigen Value 846): 1288 RLU
Proliferation (luminescent ATP assay), Mean ([1]; T-cell line 165-B5G, 3 μg/mL antigen, Day 81 of culturing, No Antigen Value 2432): 5536 RLU
Proliferation (luminescent ATP assay), Mean ([1]; T-cell line 165-B5G, 5 μg/mL antigen, Day 55 of culturing, No Antigen Value 846): 1511 RLU
Proliferation (luminescent ATP assay), Mean ([1]; T-cell line 165-B5G, 10 μg/mL antigen, Day 55 of culturing, No Antigen Value 846): 1645 RLU
Proliferation (luminescent ATP assay), Mean ([1]; T-cell line 165-B5G, 10 μg/mL antigen, Day 81 of culturing, No Antigen Value 2432): 4997 RLU
Proliferation (luminescent ATP assay), Mean ([1]; T-cell line 165-B5G, 30 μg/mL antigen, Day 81 of culturing, No Antigen Value 2432): 3637 RLU
Proliferation (luminescent ATP assay), Mean ([1]; T-cell line 165-C5G, 1.25 μg/mL antigen, autologous B-LCL): 435 RLU
Proliferation (luminescent ATP assay), Mean ([1]; T-cell line 165-C5G, 2.5 μg/mL antigen, autologous B-LCL): 465 RLU
Proliferation (luminescent ATP assay), Mean ([1]; T-cell line 165-C5G, 5 μg/mL antigen, autologous B-LCL): 504 RLU
Proliferation (luminescent ATP assay), Mean ([1]; T-cell line 165-C5G, 10 μg/mL antigen, autologous B-LCL): 423 RLU
Proliferation (luminescent ATP assay), Mean ([1]; T-cell line 165-E7G, 1 μg/mL antigen, Day 81 of culturing, No Antigen Value 2145): 4043 RLU
Proliferation (luminescent ATP assay), Mean ([1]; T-cell line 165-E7G, 1.25 μg/mL antigen, autologous B-LCL, Day 55): 2629 RLU
Proliferation (luminescent ATP assay), Mean ([1]; T-cell line 165-E7G, 2.5 μg/mL antigen, autologous B-LCL, Day 55): 2827 RLU
Proliferation (luminescent ATP assay), Mean ([1]; T-cell line 165-E7G, 3 μg/mL antigen, Day 81 of culturing, No Antigen Value 2145): 6457 RLU
Proliferation (luminescent ATP assay), Mean ([1]; T-cell line 165-E7G, 5 μg/mL antigen, autologous B-LCL, Day 55): 2950 RLU
Proliferation (luminescent ATP assay), Mean ([1]; T-cell line 165-E7G, 10 μg/mL antigen, Day 81 of culturing, No Antigen Value 2145): 5499 RLU
Proliferation (luminescent ATP assay), Mean ([1]; T-cell line 165-E7G, 10 μg/mL antigen, autologous B-LCL, Day 55): 3877 RLU
Proliferation (luminescent ATP assay), Mean ([1]; T-cell line 165-E7G, 30 μg/mL antigen, Day 81 of culturing, No Antigen Value 2145): 4178 RLU
Proliferation (luminescent ATP assay), Mean ([1]; T-cell line 165-E9G, 1 μg/mL antigen, Day 50 of culturing, No Antigen Value 1742): 1482 RLU
Proliferation (luminescent ATP assay), Mean ([1]; T-cell line 165-E9G, 1.25 μg/mL antigen, autologous B-LCL): 122 RLU
Proliferation (luminescent ATP assay), Mean ([1]; T-cell line 165-E9G, 2.5 μg/mL antigen, autologous B-LCL): 175 RLU
Proliferation (luminescent ATP assay), Mean ([1]; T-cell line 165-E9G, 3 μg/mL antigen, Day 50 of culturing, No Antigen Value 1742): 1593 RLU
Proliferation (luminescent ATP assay), Mean ([1]; T-cell line 165-E9G, 5 μg/mL antigen, autologous B-LCL): 207 RLU
Proliferation (luminescent ATP assay), Mean ([1]; T-cell line 165-E9G, 10 μg/mL antigen, autologous B-LCL): 179 RLU
Proliferation (luminescent ATP assay), Mean ([1]; T-cell line 165-E9G, 30 μg/mL antigen, Day 50 of culturing, No Antigen Value 1742): 1382 RLU
Proliferation (luminescent ATP assay), Mean ([1]; T-cell line 165-E9G, 10 μpg/mL antigen, Day 50 of culturing, No Antigen Value 1742): 1454 RLU
Proliferation (luminescent ATP assay), Mean ([1]; T-cell line 165-F5G, 1.25 μg/mL antigen, autologous B-LCL): 118 RLU
Proliferation (luminescent ATP assay), Mean ([1]; T-cell line 165-F5G, 2.5 μg/mL antigen, autologous B-LCL): 160 RLU
Proliferation (luminescent ATP assay), Mean ([1]; T-cell line 165-F5G, 5 μg/mL antigen, autologous B-LCL): 106 RLU
Proliferation (luminescent ATP assay), Mean ([1]; T-cell line 165-F5G, 10 μg/mL antigen, autologous B-LCL): 130 RLU
Proliferation (luminescent ATP assay), Mean ([1]; T-cell line 165-F10G, 1 μg/mL antigen, Day 50 of culturing, No Antigen Value 3752): 3755 RLU
Proliferation (luminescent ATP assay), Mean ([1]; T-cell line 165-F10G, 1.25 μg/mL antigen, autologous B-LCL): 948 RLU
Proliferation (luminescent ATP assay), Mean ([1]; T-cell line 165-F10G, 2.5 μg/mL antigen, autologous B-LCL): 1080 RLU
Proliferation (luminescent ATP assay), Mean ([1]; T-cell line 165-F10G, 3 μg/mL antigen, Day 50 of culturing, No Antigen Value 3752): 3543 RLU
Proliferation (luminescent ATP assay), Mean ([1]; T-cell line 165-F10G, 5 μg/mL antigen, autologous B-LCL): 1024 RLU
Proliferation (luminescent ATP assay), Mean ([1]; T-cell line 165-F10G, 10 μg/mL antigen, Day 50 of culturing, No Antigen Value 3752): 3702 RLU
Proliferation (luminescent ATP assay), Mean ([1]; T-cell line 165-F10G, 10 μg/mL antigen, autologous B-LCL): 944 RLU
Proliferation (luminescent ATP assay), Mean ([1]; T-cell line 165-F10G, 30 μg/mL antigen, Day 50 of culturing, No Antigen Value 3752): 3794 RLU
Proliferation (luminescent ATP assay), Mean ([1]; T-cell line 165-H11G, 1 μg/mL antigen, Day 50 of culturing, No Antigen Value 1485): 2413 RLU
Proliferation (luminescent ATP assay), Mean ([1]; T-cell line 165-H11G, 1.25 μg/mL antigen, autologous B-LCL): 43 RLU
Proliferation (luminescent ATP assay), Mean ([1]; T-cell line 165-H11G, 2.5 μg/mL antigen, autologous B-LCL): 290 RLU
Proliferation (luminescent ATP assay), Mean ([1]; T-cell line 165-H11G, 3 μg/mL antigen, Day 50 of culturing, No Antigen Value 1485): 2969 RLU
Proliferation (luminescent ATP assay), Mean ([1]; T-cell line 165-H11G, 5 μg/mL antigen, autologous B-LCL): 297 RLU
Proliferation (luminescent ATP assay), Mean ([1]; T-cell line 165-H11G, 10 μg/mL antigen, Day 50 of culturing, No Antigen Value 1485): 2995 RLU
Proliferation (luminescent ATP assay), Mean ([1]; T-cell line 165-H11G, 10 μg/mL antigen, autologous B-LCL): 305 RLU
Proliferation (luminescent ATP assay), Mean ([1]; T-cell line 165-H11G, 30 μg/mL antigen, Day 50 of culturing, No Antigen Value 1485): 3115 RLU
luminescent ATP proliferation assay, mean ([2]; 222-2F12, 3 μg/mL): 4342
luminescent ATP proliferation assay, mean ([2]; 222-2F12, 10 μg/mL): 3226
luminescent ATP proliferation assay, mean ([2]; 222-2F12, 30 μg/mL): 3071
Non-Canonical Peptide Non-Reactivity ([2]; 222-2F12, proliferation <2 times no antigen control): GAT 631
Nonreactive T-Cell Line ([2]; Donor 1 COP lines, stimulation with the non-canonical GA peptide): 222-2F12 (Donor 1) and 222-1H12 (Donor 1)
